# According to article PMC3402509 (Investigational New Drugs, 2011):
# Read-outs that look alike come from different tables or passages of the source.
# How the values were obtained:
# [1] = Dasatinib pharmacokinetic studies in plasma; format: in vivo, patients; conditions: for Cmax: Cmax Geomean (%CV)
# [2] = system: SFK PY-416 (P-SFK); assay: P-SFK peripheral blood mononuclear cell; format: in vivo, patients; conditions: for P-SFK levels in PBMCs compared to same day pre-dasatinib dosing levels: day 15 (with cetuximab)
# [3] = system: NSCLC; conditions: dasatinib monotherapy, phase II; cited from earlier work
structure (smiles),measurement,setting,value
"Cc1nc(Nc2ncc(C(=O)Nc3c(C)cccc3Cl)s2)cc(N2CCN(CCO)CC2)n1 [dasatinib, N-(2-chloro-6-methyl-phenyl)-2-(6-(4-(2-hydroxyethyl)-piperazin-1-yl)-2-methylpyrimidin-4-ylamino)thiazole-5-carboxamide]",T-HALF Mean (SD),"[1]; 100 mg oral, Day 0 (alone), N=3",6.8 (0.1) h
same,T-HALF Mean (SD),"[1]; 100 mg oral, Day 15 (with cetuximab), N=3",6.4 (0.1) h
same,T-HALF Mean (SD),"[1]; 150 mg oral, Day 0 (alone), N=18",5.2 (1.0) h
same,T-HALF Mean (SD),"[1]; 200 mg oral, Day 0 (alone), N=3",5.1 (0.6) h
same,half-life,"[1]; human, plasma, po",5 to 6 h
same,Cmax,"[1]; human, plasma, po, 100 mg, 100 mg oral, Day 0 (alone), N=3",101 ng/mL
same,Tmax,"[1]; human, plasma, po, 100 mg, Tmax Med (Min, Max), 100 mg oral, Day 0 (alone), N=3",1 h
same,Cmax,"[1]; human, plasma, po, 150 mg, 150 mg oral, Day 0 (alone), N=18",144 ng/mL
same,Tmax,"[1]; human, plasma, po, 150 mg, Tmax Med (Min, Max), 150 mg oral, Day 0 (alone), N=18",1.5 h
same,Cmax,"[1]; human, plasma, po, 200 mg, 200 mg oral, Day 0 (alone), N=3",415 ng/mL
same,Tmax,"[1]; human, plasma, po, 200 mg, Tmax Med (Min, Max), 200 mg oral, Day 0 (alone), N=3",1 h
same,Tmax,"[1]; human, plasma, po, Tmax, text summary over dose levels",1 to 2 h
same,PK parameters (AUC and T-HALF) given alone (day 0) versus in combination with cetuximab (day 15),[1]; in vivo,comparable
same,P-SFK levels in PBMCs compared to baseline,"[2]; day 0, 4 hours following dasatinib dosing",tended to be reduced
same,P-SFK levels in PBMCs compared to baseline,"[2]; day 0, 8 hours following dasatinib dosing",significantly reduced
same,P-SFK levels in PBMCs compared to baseline,"[2]; day 0, 24 hours following dasatinib dosing",did not differ from baseline levels
same,P-SFK levels in PBMCs compared to same day pre-dasatinib dosing levels,"[2]; 8 hours, P=0.03",significantly decreased
same,P-SFK levels in PBMCs compared to same day pre-dasatinib dosing levels,"[2]; 24 hours, P=0.18",did not differ from pre-dasatinib dosing levels
same,DLT (patients),"dose level 1, dasatinib 100 mg once daily plus weekly cetuximab, 3 (3) patients (evaluable)",None
same,DLT (patients),"dose level 2, dasatinib 150 mg once daily plus weekly cetuximab, 19 (14) patients (evaluable)",1
same,DLT (patients),"dose level 2, dasatinib 150 mg once daily plus weekly cetuximab, 19 (14) patients (evaluable), listed as Dasatinib",1 (Headache)
same,DLT (patients),"dose level 3, dasatinib 200 mg once daily plus weekly cetuximab, 3 (2) patients (evaluable)",2
same,patients with either a partial response or SD,[3],43%
